Test results as given in ChEMBL document CHEMBL3860045 (Bioorg Med Chem Lett, 2016).

Columns and labels:
[1] = molecular target: T1, High affinity choline transporter 1 (Homo sapiens, UniProt Q9GZV3); assay: Inhibition of [3H]choline uptake at human choline transporter expressed in HEK293 cells preincubated for 15 mins followed by [3H]choline addition measured after 10 to 15 mins by scintillation proximity assay; type: cell-based
T1 sequence (Q9GZV3 whole entry): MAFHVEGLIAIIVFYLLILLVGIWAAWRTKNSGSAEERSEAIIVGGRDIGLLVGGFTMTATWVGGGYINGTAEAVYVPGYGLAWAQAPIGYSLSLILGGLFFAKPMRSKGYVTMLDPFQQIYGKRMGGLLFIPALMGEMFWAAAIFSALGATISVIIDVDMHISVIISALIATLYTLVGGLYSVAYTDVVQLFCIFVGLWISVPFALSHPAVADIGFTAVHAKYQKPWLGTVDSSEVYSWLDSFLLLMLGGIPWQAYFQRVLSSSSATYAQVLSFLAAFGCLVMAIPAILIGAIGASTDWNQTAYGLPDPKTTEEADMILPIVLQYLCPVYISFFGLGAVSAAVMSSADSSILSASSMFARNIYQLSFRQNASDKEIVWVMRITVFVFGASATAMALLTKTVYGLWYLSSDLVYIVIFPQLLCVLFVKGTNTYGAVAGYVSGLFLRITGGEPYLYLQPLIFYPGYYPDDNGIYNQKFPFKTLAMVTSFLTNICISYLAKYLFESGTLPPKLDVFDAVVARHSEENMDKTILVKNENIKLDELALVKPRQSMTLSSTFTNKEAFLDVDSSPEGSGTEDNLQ

[2] = molecular target: T2, High affinity choline transporter 1 (Homo sapiens) (UniProt Q9GZV3); assay: Inhibition of [3H]choline uptake at human choline transporter expressed in HEK293 cells at 5 uM preincubated for 15 mins followed by [3H]choline addition measured after 10 to 15 mins by scintillation proximity assay relative to control; type: cell-based
T2 sequence (whole entry): T1 sequence (Q9GZV3 whole entry)

Rattus norvegicus [3] = assay: Cognitive enhancing effect in ip dosed rat assessed as increase in recognition index treated 30 mins prior test measured after 24 hrs by novel object recognition test relative to vehicle-treated control; type: functional, organism-based
[4] = Volume of distribution at steady state in cannulated Sprague-Dawley rat at 1 mg/kg, iv up to 24 hrs by LC-MS/MS analysis; type: ADME, organism-based; settings: in vivo
Rattus norvegicus [5] = assay: Cognitive enhancing effect in rat assessed as increase in recognition index at 3 mg/kg, ip treated 30 mins prior test measured after 24 hrs by novel object recognition test relative to vehicle-treated control; type: functional
[6] = Fraction unbound in rat brain after 4 hrs by LC-MS/MS based equilibrium dialysis method; type: ADME, tissue-based
Cytochrome P450 1A2 = molecular target: T3, Cytochrome P450 1A2 (Homo sapiens, UniProt P05177); assay: Inhibition of human CYP1A2; type: ADME
T3 sequence (P05177 whole entry): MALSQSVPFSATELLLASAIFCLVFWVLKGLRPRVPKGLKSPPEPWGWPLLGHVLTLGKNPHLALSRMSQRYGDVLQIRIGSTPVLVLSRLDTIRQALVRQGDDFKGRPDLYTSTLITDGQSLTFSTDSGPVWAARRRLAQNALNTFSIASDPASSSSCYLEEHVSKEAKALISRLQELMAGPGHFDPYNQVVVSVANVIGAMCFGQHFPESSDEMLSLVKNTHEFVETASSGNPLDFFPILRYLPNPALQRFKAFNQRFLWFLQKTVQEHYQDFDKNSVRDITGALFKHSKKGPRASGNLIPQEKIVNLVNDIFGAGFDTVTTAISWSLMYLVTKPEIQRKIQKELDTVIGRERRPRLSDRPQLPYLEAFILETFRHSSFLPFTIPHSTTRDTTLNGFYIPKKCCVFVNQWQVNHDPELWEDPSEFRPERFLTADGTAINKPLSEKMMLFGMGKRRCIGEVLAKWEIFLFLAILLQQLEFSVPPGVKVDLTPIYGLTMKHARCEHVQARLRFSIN

Rattus norvegicus [7] = assay: Cognitive enhancing effect in rat assessed as increase in recognition index at 10 mg/kg, ip treated 30 mins prior test measured after 24 hrs by novel object recognition test relative to vehicle-treated control; type: functional
[8] = Fraction unbound in human plasma after 4 hrs by LC-MS/MS based equilibrium dialysis method; type: ADME, cell-free
[9] = Fraction unbound in rat plasma after 4 hrs by LC-MS/MS based equilibrium dialysis method; type: ADME, cell-free
Cytochrome P450 2D6 = Cytochrome P450 2D6 (Homo sapiens, UniProt P10635); assay: Inhibition of human CYP2D6; type: ADME
Chain of Cytochrome P450 2D6 (P10635 whole entry): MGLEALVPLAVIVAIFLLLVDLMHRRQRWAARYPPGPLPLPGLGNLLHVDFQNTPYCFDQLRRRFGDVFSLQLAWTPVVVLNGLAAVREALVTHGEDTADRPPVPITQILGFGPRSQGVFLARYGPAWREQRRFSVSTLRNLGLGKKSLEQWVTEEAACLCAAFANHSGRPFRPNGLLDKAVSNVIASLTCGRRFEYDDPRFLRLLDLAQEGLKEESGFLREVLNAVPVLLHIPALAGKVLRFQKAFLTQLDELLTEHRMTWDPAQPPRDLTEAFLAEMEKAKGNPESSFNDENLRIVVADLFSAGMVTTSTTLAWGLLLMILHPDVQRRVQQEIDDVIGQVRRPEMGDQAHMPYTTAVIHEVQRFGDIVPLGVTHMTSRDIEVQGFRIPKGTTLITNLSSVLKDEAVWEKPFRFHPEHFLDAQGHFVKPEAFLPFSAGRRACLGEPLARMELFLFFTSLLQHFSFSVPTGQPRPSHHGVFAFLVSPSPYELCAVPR

Rattus norvegicus [10] = assay: Toxicity in rat at >10 mg/kg, ip; type: organism-based; settings: in vivo
[11] = Intrinsic clearance in human liver microsomes at 1 uM preincubated with microsomes followed by NADPH addition measured up to 45 mins by LC-MS/MS analysis; type: ADME; settings: read-out: CLH
Cytochrome P450 3A4 = Cytochrome P450 3A4 (Homo sapiens, UniProt P08684); assay: Inhibition of human CYP3A4; type: ADME
Chain of Cytochrome P450 3A4 (P08684 whole entry): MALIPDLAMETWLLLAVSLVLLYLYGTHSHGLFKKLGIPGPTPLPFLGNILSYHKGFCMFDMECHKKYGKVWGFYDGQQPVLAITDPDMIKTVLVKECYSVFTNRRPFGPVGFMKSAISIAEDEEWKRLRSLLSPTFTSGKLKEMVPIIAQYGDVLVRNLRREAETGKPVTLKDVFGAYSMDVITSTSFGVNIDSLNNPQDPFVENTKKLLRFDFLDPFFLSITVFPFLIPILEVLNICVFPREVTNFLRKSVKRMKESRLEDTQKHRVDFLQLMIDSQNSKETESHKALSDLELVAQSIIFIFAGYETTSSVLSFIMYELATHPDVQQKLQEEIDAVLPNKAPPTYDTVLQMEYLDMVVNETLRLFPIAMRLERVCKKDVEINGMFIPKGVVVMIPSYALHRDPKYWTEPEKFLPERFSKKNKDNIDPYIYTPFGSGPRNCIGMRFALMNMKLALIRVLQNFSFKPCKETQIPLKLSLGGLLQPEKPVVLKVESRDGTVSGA

[12] = Intrinsic clearance in rat liver microsomes at 1 uM preincubated with microsomes followed by NADPH addition measured up to 45 mins by LC-MS/MS analysis; type: ADME; settings: read-out: CLH
[13] = Plasma concentration in cannulated Sprague-Dawley rat at 1 mg/kg, iv after […] by LC-MS/MS analysis; type: ADME, organism-based
[14] = Drug uptake in cannulated Sprague-Dawley rat brain at 1 mg/kg, iv administered twice at 24 hrs interval followed by 0.75 min of isoflurane treatment post 15 min second dose measured after […] by LC-MS/MS analysis; type: ADME, organism-based; settings: read-out: Drug uptake
[15] = Plasma clearance in cannulated Sprague-Dawley rat at 1 mg/kg, iv up to 24 hrs by LC-MS/MS analysis; type: ADME, organism-based
[16] = Ratio of unbound concentration in cannulated Sprague-Dawley rat brain to plasma at 1 mg/kg, iv; type: ADME, organism-based; settings: read-out: K(p,uu,brain)
Cytochrome P450 2C9 = Cytochrome P450 2C9 (Homo sapiens, UniProt P11712); assay: Inhibition of human CYP2C9; type: ADME
Chain of Cytochrome P450 2C9 (P11712 whole entry): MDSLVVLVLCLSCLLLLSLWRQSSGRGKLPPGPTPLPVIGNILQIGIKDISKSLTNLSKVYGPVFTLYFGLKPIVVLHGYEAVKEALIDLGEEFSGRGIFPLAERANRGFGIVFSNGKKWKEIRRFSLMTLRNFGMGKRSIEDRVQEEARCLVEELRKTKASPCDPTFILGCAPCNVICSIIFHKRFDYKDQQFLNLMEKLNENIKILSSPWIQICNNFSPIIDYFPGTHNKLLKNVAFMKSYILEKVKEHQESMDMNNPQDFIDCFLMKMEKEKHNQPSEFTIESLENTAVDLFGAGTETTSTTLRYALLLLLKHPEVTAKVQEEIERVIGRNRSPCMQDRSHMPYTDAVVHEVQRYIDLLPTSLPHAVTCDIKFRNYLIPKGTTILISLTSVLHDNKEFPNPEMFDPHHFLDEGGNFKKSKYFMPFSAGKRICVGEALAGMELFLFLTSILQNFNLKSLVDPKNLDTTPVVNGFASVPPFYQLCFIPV

[17] = Ratio of drug level in cannulated Sprague-Dawley rat brain to plasma at 1 mg/kg, iv; type: ADME, organism-based
[18] = Half life in cannulated Sprague-Dawley rat plasma at 1 mg/kg, iv by LC-MS/MS analysis; type: ADME, organism-based

For `CC(C)c1cc(CNC(=O)c2cccc(OC3CCN(C)CC3)c2)on1`, the IC50 [1] was 0.64 µM and the inhibition [2] was > 50%.

In the case of `COc1cc2c(cc1OC)C(=O)C(CC1CCN(Cc3ccccc3)CC1)C2` (stereo not drawn), the Activity (Rattus norvegicus [3]) is reported as “Dose-dependent effect”.

In the case of `CC(C)c1cc(CNC(=O)c2ccc(C(F)(F)F)c(OC3CCN(C)CC3)c2)on1`, the IC50 [1] is reported as > 10 µM and the inhibition [2] is reported as > 50%.

`CC(C)c1cc(CNC(=O)c2ccc(Cl)c(OC3CCN(C)CC3)c2)on1` showed a Vd ([4]; Sprague-Dawley, read-out: Vdss) of 0.3 L/kg, an Activity (Rattus norvegicus [5]) of 28% and an IC50 [1] of 0.27 µM. The Activity (Rattus norvegicus [3]) was “Dose-dependent effect”, the fraction unbound at 4 h [6] was 0.65 and the IC50 (Cytochrome P450 1A2) was > 30 µM. For the same compound, the Activity (Rattus norvegicus [7]) was 24%, the fraction unbound at 4 h [8] was 0.31 and the inhibition [2] was > 50%. The fraction unbound at 4 h [9] was 0.19, the IC50 (Cytochrome P450 2D6) was > 30 µM and the Activity (Rattus norvegicus [10]) was “Toxic”. The CLint scaled at 1 µM [11] was 10.4 mL/min/kg, the IC50 (Cytochrome P450 3A4) was > 30 µM and the CLint scaled at 1 µM [12] was 42.5 mL/min/kg. The concentration at […] [13] was 47.2 ng/mL, the concentration at […] [14] was 16.3 ng/g and the clearance [15] was 1.54 mL/min/kg. For the same compound, the Kp uu [16] was 0.71, the IC50 (Cytochrome P450 2C9) was > 30 µM and the Kp [17] was 0.34. The half-life ([18]; Sprague-Dawley, plasma) was 1.95 h.

In the case of `CC(C)c1cc(CNC(=O)c2cccc(OC3CCN(C(C)C)CC3)c2)on1`, the IC50 [1] is reported as 1.84 µM and the inhibition [2] is reported as > 50%.

Work on `COc1ccc(C(=O)NCc2cc(C(C)C)no2)cc1OC1CCN(C)CC1` yielded a Vdss ([4]; 24 h) of 3.2 L/kg, a fraction unbound at 4 h [6] of 0.36 and a Fu ([8]; 4 h) of 0.67. For the same compound, the Fu ([9]; 4 h) was 0.35, the CLint scaled at 1 µM [11] was 10.4 mL/min/kg and the CLint scaled at 1 µM [12] was 95 mL/min/kg. The concentration at […] [13] was 129 ng/mL, the concentration at […] [14] was 23.4 ng/g and the Kp [17] was 0.18. The t1/2 ([18]; in vivo) was 0.55 h.

In the case of `CC(C)c1cc(CNC(=O)c2ccc(F)c(OC3CCN(C)CC3)c2)on1`, the IC50 [1] is reported as 0.467 µM and the inhibition [2] is reported as > 50%.

With `CC(C)c1cc(CNC(=O)c2ccc(C#N)c(OC3CCN(C)CC3)c2)on1` the IC50 [1] was 3.35 µM and the inhibition [2] was > 50%.
